From ChEMBL document CHEMBL3763058, “Design, RNA cleavage and antiviral activity of new artificial ribonucleases derived from mono-, di- and tripeptides connected by linkers of different hydrophobicity” (Bioorg Med Chem, 2016)
Calls of active or inactive are those of the source. The rule behind the calls is not given here.

Key:
[1] = system: Human immunodeficiency virus 1; test: Binding affinity to HIV1 5'-[32P]ON21 RNA assessed as viral RNA cleavage at 1 mM measured after 3 and 7 hrs relative to control
[2] = system: Human immunodeficiency virus 1; test: Binding affinity to HIV1 5'-[32P]ON21 RNA in cacodylate buffer assessed as RNA cleavage rate constant for 3 hrs at pH 6.2 to 7.2
[3] = system: Human immunodeficiency virus 1; test: Binding affinity to HIV1 5'-[32P]ON21 RNA in Tris-Hcl buffer assessed as RNA cleavage rate constant for 5 hrs at pH 7.5
[4] = system: Human immunodeficiency virus 1; test: Binding affinity to HIV1 5'-[32P]HIV96 RNA assessed as viral RNA cleavage rate constant at 1 mM
[5] = system: Human immunodeficiency virus 1; test: Binding affinity to HIV1 5'-[32P]HIV96 RNA assessed as viral RNA cleavage at 1 mM measured after 3 and 7 hrs relative to control
[6] = system: Human immunodeficiency virus 1; test: Binding affinity to HIV1 5'-[32P]HIV96 RNA assessed as time of half viral RNA cleavage of at 1 mM
[7] = system: Influenza A virus; test: (§1) Antiviral activity against Influenza A virus (A/WSN/33(H1N1)) infected in MDCK cells assessed as viral titer at 0.2 mM compound preincubated with virus for 24 hrs followed by host cell infection measured after 18 hrs by AEC staining based inverted microscopic analysis (reference value: 5.2 log10 FFU/ml); assay type: functional, A/WSN/1933(H1N1)
[8] = system: Influenza A virus; test: (§2) Antiviral activity against Influenza A virus (A/WSN/33(H1N1)) infected in MDCK cells assessed as reduction in viral titer compound preincubated with virus for 24 hrs followed by host cell infection measured after 24 hrs by AEC staining based inverted microscopic analysis; assay type: functional, organism-based; conditions: A/WSN/1933(H1N1)
[9] = system: MDCK; test: Cytotoxicity against MDCK cells assessed as reduction in cell viability after 24 hrs by MTT assay; assay type: cell-based; conditions: Canis lupus familiaris
[10] = system: Influenza A virus; test: as §1, with “2” for “0.2”; assay type: functional, A/WSN/1933(H1N1)
[11] = system: Influenza A virus; test: as §1, with “1” for “0.2”; assay type: functional, A/WSN/1933(H1N1)
[12] = system: Influenza A virus; test: as §2, with “titer at 0.001 to 4 mM” for “titer”, “after 18” for “after 24”, “analysis relative to control” for “analysis”; assay type: functional, A/WSN/1933(H1N1)
[13] = system: Influenza A virus; test: as §1, with “0.1” for “0.2”; assay type: functional, A/WSN/1933(H1N1)
[14] = system: Influenza A virus; test: Antiviral activity against Influenza A virus (A/WSN/33(H1N1)) infected in MDCK cells assessed as reduction in viral titer at 4 mM compound preincubated with virus for 24 hrs followed by host cell infection measured after 18 hrs by AEC staining based inverted microscopic analysis; assay type: functional, A/WSN/1933(H1N1)
[15] = system: Influenza A virus; test: as §1, with “0.5” for “0.2”; assay type: functional, A/WSN/1933(H1N1)
[16] = system: Influenza A virus; test: as §1, with “4” for “0.2”; assay type: functional, A/WSN/1933(H1N1)
[17] = system: Influenza A virus; test: Antiviral activity against Influenza A virus (A/WSN/33(H1N1)) infected in MDCK cells assessed as reduction in viral titer at 2 mM compound preincubated with virus for 24 hrs followed by host cell infection measured after 18 hrs by AEC staining based inverted microscopic analysis relative to control; assay type: functional, A/WSN/1933(H1N1)

| SMILES | Activity [1] [%] | Activity [2] | Activity [3] | K [4] [h⁻¹] | Activity [5] [%] | TIME [6] [h] | Activity [7] [log10FFU/ml] | Activity [8] | IC50 [9] [µM] | Activity [10] [log10FFU/ml] | Activity [11] [log10FFU/ml] | fold change (FC) [12] | Activity [13] [log10FFU/ml] | fold change (FC) [14] | Activity [15] [log10FFU/ml] | Activity [16] [log10FFU/ml] | fold change (FC) [17] |
| --- | --- | --- | --- | --- | --- | --- | --- | --- | --- | --- | --- | --- | --- | --- | --- | --- | --- |
| NCCCC[C@H](NC(=O)CCc1c[nH]cn1)C(=O)NCCCOCCCCOCCCNC(=O)[C@H](CCCCN)NC(=O)CCc1c[nH]cn1 | 29 | inactive | Active | 0.076 | 44 | 8 | – | – | – | – | – | – | – | – | – | – | – |
| O=C(/C=C/c1c[nH]cn1)N[C@@H](CCCCNC(=O)OCc1ccccc1Cl)C(=O)NCCCOCCCCOCCCNC(=O)[C@H](CCCCNC(=O)OCc1ccccc1Cl)NC(=O)/C=C/c1c[nH]cn1 | 42 | – | – | 0.11 | 52 | 7 | 4.5 | Dose-dependent effect | 700 | 4 | – | – | – | – | – | – | – |
| N[C@@H](CO)C(=O)NCCCCCCCCCCCCNC(=O)[C@@H](N)CO | 13 | – | – | 0.079 | 28 | 6 | – | – | – | – | – | – | – | – | – | – | – |
| NCCCC[C@H](N)C(=O)NCCCCCC(=O)N[C@@H](CO)C(=O)NCCCOCCCCOCCCNC(=O)[C@H](CO)NC(=O)CCCCCNC(=O)[C@@H](N)CCCCN | 11 | – | – | 0.005 | 10 | > 24 | – | – | – | – | – | – | – | – | – | – | – |
| NCCCC[C@H](NCCCCCNC(=O)[C@@H](N)CCC(=O)O)C(=O)NCCCCCCCCCCCCNC(=O)[C@H](CCCCN)NC(=O)CCCCCNC(=O)[C@@H](N)CCC(=O)O | 35 | Active | – | 0.254 | 55 | 3 | – | Dose-dependent effect | 500 | – | 3.7 | 1.5 | 3.8 | 1.5 | – | – | – |
| N[C@@H](CCC(=O)O)C(=O)NCCCCCCCCCCCCNC(=O)[C@@H](N)CCC(=O)O | 39 | Active | – | 0.276 | 60 | 2 | 4.8 | Dose-dependent effect | > 5000 | – | <1 | 1.5 | – | – | 2.1 | – | – |
| N[C@@H](CCC(=O)O)C(=O)NCCCCCC(=O)N[C@@H](CO)C(=O)NCCCOCCCCOCCCNC(=O)[C@H](CO)NC(=O)CCCCCNC(=O)[C@@H](N)CCC(=O)O | 18 | – | – | 0.033 | 23 | 17 | – | – | – | – | – | – | – | – | – | – | – |
| N[C@@H](CCC(=O)OCc1ccccc1)C(=O)NCCCCCCCCCCCCNC(=O)[C@@H](N)CCC(=O)OCc1ccccc1 | 45 | – | – | 0.053 | 18 | 9 | 4.4 | Dose-dependent effect | > 5000 | 2.3 | – | – | – | – | – | <1 | – |
| NCCCC[C@H](N)C(=O)NCCCCCCCCCCCCNC(=O)[C@@H](N)CCCCN | 8 | – | – | 0.07 | 24 | 7 | – | – | – | – | – | – | – | – | – | – | – |
| N[C@@H](CO)C(=O)NCCCOCCCCOCCCNC(=O)[C@@H](N)CO | 3 | – | – | 0.002 | 6 | > 24 | – | – | – | – | – | – | – | – | – | – | – |
| N=C(N)NCCC[C@H](N)C(=O)NCCCOCCCCOCCCNC(=O)[C@@H](N)CCCNC(=N)N | 25 | – | – | 0.062 | 38 | 10 | – | – | – | – | – | – | – | – | – | – | – |
| NCCCC[C@H](N)C(=O)NCCCOCCCCOCCCNC(=O)[C@@H](N)CCCCN | 8 | – | – | 0.011 | 19 | 20 | – | – | – | – | – | – | – | – | – | – | – |
| NCCCC[C@H](NC(=O)CCCCCNC(=O)[C@@H](N)CCC(=O)O)C(=O)NCCCOCCCCOCCCNC(=O)[C@H](CCCCN)NC(=O)CCCCCNC(=O)[C@@H](N)CCC(=O)O | 33 | – | – | 0.082 | 57 | 6 | 4.9 | Dose-dependent effect | 200 | 2.2 | – | 1.5 | – | – | – | – | 3 |
